According to US20250059198A1, “BRM DEGRADING COMPOUNDS AND ASSOCIATED METHODS OF USE” (Arvinas Operations, Inc., priority 2021, published 2025):

Target: T1, BRM (Homo sapiens, UniProt P51531)
T1 construct: Western Blot Screen of BRM Degradation in SW1573 Cells; endogenous in cells; host or cells: SW1573 cells
Test: BRM degradation (Dmax and DC50) in SW1573 cells, Western blot screen / In-Cell Western screen
Type: cell-based
Conditions: overnight (18-20 hours) treatment; for Dmax: read-out: Dmax (%)** (% degraded)
Outline: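 SW1573 cells were treated with compound for 18–20 h (final 0.1% DMSO). BRM was quantified either by Western blot of RIPA lysates or by fixed-cell In-Cell Western (LI-COR, 800/680 nm), each normalised to alpha-tubulin, giving Dmax and DC50.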

T1 sequence (P51531 whole entry): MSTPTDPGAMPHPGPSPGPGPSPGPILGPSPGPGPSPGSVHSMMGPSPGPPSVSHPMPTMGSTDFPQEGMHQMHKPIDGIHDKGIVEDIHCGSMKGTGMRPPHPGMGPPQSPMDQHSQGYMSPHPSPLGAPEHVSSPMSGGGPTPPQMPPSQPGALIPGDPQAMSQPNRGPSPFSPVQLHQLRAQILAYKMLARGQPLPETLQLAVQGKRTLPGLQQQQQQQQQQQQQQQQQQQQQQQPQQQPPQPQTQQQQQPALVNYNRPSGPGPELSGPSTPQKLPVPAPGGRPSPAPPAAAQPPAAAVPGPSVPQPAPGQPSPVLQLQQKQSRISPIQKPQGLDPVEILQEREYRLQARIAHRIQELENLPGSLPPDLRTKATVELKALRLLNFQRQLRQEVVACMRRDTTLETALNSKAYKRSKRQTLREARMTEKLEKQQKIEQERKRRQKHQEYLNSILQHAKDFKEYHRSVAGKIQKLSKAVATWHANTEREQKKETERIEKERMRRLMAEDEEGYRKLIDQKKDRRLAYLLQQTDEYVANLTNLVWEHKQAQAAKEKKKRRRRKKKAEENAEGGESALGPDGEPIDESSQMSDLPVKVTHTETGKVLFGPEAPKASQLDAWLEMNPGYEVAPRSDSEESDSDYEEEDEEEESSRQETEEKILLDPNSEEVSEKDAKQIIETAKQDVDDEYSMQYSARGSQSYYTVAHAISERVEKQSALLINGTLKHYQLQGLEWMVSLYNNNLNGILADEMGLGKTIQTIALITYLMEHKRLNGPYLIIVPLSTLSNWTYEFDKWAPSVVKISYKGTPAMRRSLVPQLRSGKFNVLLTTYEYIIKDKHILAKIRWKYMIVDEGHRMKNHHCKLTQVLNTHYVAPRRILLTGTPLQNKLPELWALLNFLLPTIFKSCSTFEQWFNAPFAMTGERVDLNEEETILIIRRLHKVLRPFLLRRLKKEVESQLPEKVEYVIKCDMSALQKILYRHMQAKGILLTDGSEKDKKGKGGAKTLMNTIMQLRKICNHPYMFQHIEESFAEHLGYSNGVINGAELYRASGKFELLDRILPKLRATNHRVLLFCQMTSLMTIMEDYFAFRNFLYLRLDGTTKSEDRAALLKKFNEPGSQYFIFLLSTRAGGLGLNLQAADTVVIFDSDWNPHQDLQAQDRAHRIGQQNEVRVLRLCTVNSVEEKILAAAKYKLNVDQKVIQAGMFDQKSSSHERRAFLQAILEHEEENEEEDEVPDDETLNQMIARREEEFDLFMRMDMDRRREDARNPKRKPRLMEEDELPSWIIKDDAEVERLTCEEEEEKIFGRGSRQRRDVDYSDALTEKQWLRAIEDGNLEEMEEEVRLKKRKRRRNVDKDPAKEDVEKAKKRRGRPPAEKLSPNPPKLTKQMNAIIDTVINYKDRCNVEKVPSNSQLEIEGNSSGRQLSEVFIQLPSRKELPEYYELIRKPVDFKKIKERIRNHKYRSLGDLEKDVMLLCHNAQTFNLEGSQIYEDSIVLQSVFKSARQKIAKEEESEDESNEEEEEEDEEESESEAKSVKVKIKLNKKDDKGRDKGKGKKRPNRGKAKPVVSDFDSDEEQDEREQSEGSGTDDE

| SMILES | DC50 [nM] | Dmax [%] |
| --- | --- | --- |
| CC(C)[C@@H](C(=O)N1C[C@H](O)C[C@H]1C(=O)N[C@@H](C)c1ccc(C#N)cc1)c1cc(N2CCC(CN3CCC(O[C@H]4C[C@H](Oc5cc(N6C7CCC6CN(c6cc(-c8ccccc8O)nnc6N)CC7)ccn5)C4)CC3)CC2)no1 (stereo partly drawn) [Compound 14, (2S,4R)-N-[(1S)-1-(4-cyanophenyl)ethyl]-4-hydroxy-1-[(2R)-3-methyl-2-{3-[4-({4-[(1r,3r)-3-[(4-{3-[3-amino-6-(2-hydroxyphenyl)pyridazin-4-yl]-3,9-diazabicyclo[4.2.1]nonan-9-yl}pyridin-2-yl)oxy]cyclobutoxy]piperidin-1-yl}methyl)piperidin-1-yl]-1,2-oxazol-5-yl}butanoyl]pyrrolidine-2-carboxamide] | < 2.5 | > 75 |
| Cc1ncsc1-c1ccc([C@H](C)NC(=O)[C@@H]2C[C@@H](O)CN2C(=O)[C@@H](c2cc(N3CCC(CN4CCC5(CC4)CC(N4CCO[C@@H](C#CC(C)n6cc(-c7cc(-c8ccccc8O)nnc7N)cn6)C4)C5)CC3)no2)C(C)C)cc1 (stereo partly drawn) [Compound 121, (2S,4R)-1-[(2R)-2-{3-[4-({2-[(2S)-2-(3-{4-[3-amino-6-(2-hydroxyphenyl)pyridazin-4-yl]-1H-pyrazol-1-yl}but-1-yn-1-yl)morpholin-4-yl]-7-azaspiro[3.5]nonan-7-yl}methyl)piperidin-1-yl]-1,2-oxazol-5-yl}-3-methylbutanoyl]-4-hydroxy-N-[(1S)-1-[4-(4-methyl-1,3-thiazol-5-yl)phenyl]ethyl]pyrrolidine-2-carboxamide] | < 2.5 | > 75 |
| Cc1ncsc1-c1ccc([C@H](C)NC(=O)[C@@H]2C[C@@H](O)CN2C(=O)[C@H](c2cc(N3C4CCC3CC(CN3CCC(O[C@H]5C[C@H](Oc6cc(N7C8CCC7CN(c7cc(-c9ccccc9O)nnc7N)C8)ccn6)C5)CC3)C4)no2)C(C)C)cc1 (stereo partly drawn) [Compound 18, (2S,4R)-4-hydroxy-N-[(1S)-1-[4-(4-methyl-1,3-thiazol-5-yl)phenyl]ethyl]-1-[(2S)-3-methyl-2-{3-[3-({4-[(1r*,3r*)-3-[(4-{3-[3-amino-6-(2-hydroxyphenyl)pyridazin-4-yl]-3,8-diazabicyclo[3.2.1]octan-8-yl}pyridin-2-yl)oxy]cyclobutoxy]piperidin-1-yl}methyl)-8-azabicyclo[3.2.1]octan-8-yl]-1,2-oxazol-5-yl}butanoyl]pyrrolidine-2-carboxamide] | ≥ 30 |  |
| CC(C)[C@H](C(=O)N1C[C@H](O)C[C@H]1C(=O)N[C@@H](C)c1ccc(C#N)cc1)c1cc(N2CCC(OCCN3CCC(Oc4cc(N5C6CCC5CN(c5cc(-c7ccccc7O)nnc5N)C6)ccn4)CC3)CC2)no1 [Compound 150, (2S,4R)-1-[(2S)-2-{3-[4-(2-{4-[(4-{3-[3-amino-6-(2-hydroxyphenyl)pyridazin-4-yl]-3,8-diazabicyclo[3.2.1]octan-8-yl}pyridin-2-yl)oxy]piperidin-1-yl}ethoxy)piperidin-1-yl]-1,2-oxazol-5-yl}-3-methylbutanoyl]-N-[(1S)-1-(4-cyanophenyl)ethyl]-4-hydroxypyrrolidine-2-carboxamide] | ≥ 30 |  |
| CC(C)[C@@H](C(=O)N1C[C@H](O)C[C@H]1C(=O)N[C@@H](C)c1ccc(C#N)cc1)c1cc(N2CCC(CN3CC[C@@H](Oc4cc(N5C6CCC5CN(c5cc(-c7ccccc7O)nnc5N)C6)ccn4)C(F)(F)C3)CC2)no1 [Compound 147, (2S,4R)-1-[(2R)-2-[3-(4-{[(4R)-4-[(4-{3-[3-amino-6-(2-hydroxyphenyl)pyridazin-4-yl]-3,8-diazabicyclo[3.2.1]octan-8-yl}pyridin-2-yl)oxy]-3,3-difluoropiperidin-1-yl]methyl}piperidin-1-yl)-1,2-oxazol-5-yl]-3-methylbutanoyl]-N-[(1S)-1-(4-cyanophenyl)ethyl]-4-hydroxypyrrolidine-2-carboxamide] | 2.5 to 10 | > 75 |
